Tested on: K24384-001-R-PDC complex spheroid viability
Test: Anticancer human tumor K24384-001-R-PDC patient-derived pancreatic adenocarcinoma cell line growth inhibition
Conditions: for IC50: curve of first compound; for viability, T/C: stronger effect = lower value; active = viability on the fitted dose curve at most 10% of control; inactive = the rest
How it was run: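 Complex spheroids of tumor cells with HUVEC and human MSCs, exposed to iadademstat combined with other agents. Each agent tested in half-log steps from near clinical Cmax (else 10 microM top), DMSO ≤0.25%.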

[1] = second compound 0.1 µM, first compound 0.00316 µM
[2] = second compound 0.1 µM, first compound 0.01 µM
[3] = second compound 0.1 µM, first compound 0.0316 µM
[4] = second compound 0.1 µM, first compound 0.1 µM
[5] = second compound 0.1 µM, first compound 0.316 µM
[6] = second compound 0.1 µM, first compound 1 µM
[7] = second compound 0.316 µM, first compound 0.00316 µM
[8] = second compound 0.316 µM, first compound 0.01 µM
[9] = second compound 0.316 µM, first compound 0.0316 µM
[10] = second compound 0.316 µM, first compound 0.1 µM
[11] = second compound 0.316 µM, first compound 0.316 µM
[12] = second compound 0.316 µM, first compound 1 µM
[13] = second compound 1 µM, first compound 0.00316 µM
[14] = second compound 1 µM, first compound 0.01 µM
[15] = second compound 1 µM, first compound 0.0316 µM
[16] = second compound 1 µM, first compound 0.1 µM
[17] = second compound 1 µM, first compound 0.316 µM
[18] = second compound 1 µM, first compound 1 µM
[19] = second compound 3.16 µM, first compound 0.00316 µM
[20] = second compound 3.16 µM, first compound 0.01 µM
[21] = second compound 3.16 µM, first compound 0.0316 µM
[22] = second compound 3.16 µM, first compound 0.1 µM
[23] = second compound 3.16 µM, first compound 0.316 µM
[24] = second compound 3.16 µM, first compound 1 µM
[25] = second compound 10 µM, first compound 0.00316 µM
[26] = second compound 10 µM, first compound 0.01 µM
[27] = second compound 10 µM, first compound 0.0316 µM
[28] = second compound 10 µM, first compound 0.1 µM
[29] = second compound 10 µM, first compound 0.316 µM
[30] = second compound 10 µM, first compound 1 µM
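Note: spheroids exposed to agents for seven days before luminescence viability reading.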
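Throughout, for viability, T/C: 100% = DMSO vehicle control viability.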

COc1cc(Nc2ncc3c(n2)-c2ccc(Cl)cc2C(c2c(F)cccc2OC)=NC3)ccc1C(=O)O + NC1CCC(NC2CC2c2ccccc2)CC1
inactive: viability, T/C [1] 82.2% | viability, T/C [2] 91.4% | viability, T/C [3] 70.1% | viability, T/C [4] 54.5% | viability, T/C [5] 58.4% | viability, T/C [6] 84.1% | viability, T/C [7] 87.8% | viability, T/C [8] 72% | viability, T/C [9] 71% | viability, T/C [10] 56.7% | viability, T/C [11] 52.2% | viability, T/C [12] 58.6% | viability, T/C [13] 71.1% | viability, T/C [14] 87.3% | viability, T/C [15] 59.8% | viability, T/C [16] 53.8% | viability, T/C [17] 67.3% | viability, T/C [18] 60.7% | viability, T/C [19] 83.7% | viability, T/C [20] 77.6% | viability, T/C [21] 62.2% | viability, T/C [22] 57.3% | viability, T/C [23] 51.9% | viability, T/C [24] 60.6% | viability, T/C [25] 80.8% | viability, T/C [26] 84.1% | viability, T/C [27] 58.9% | viability, T/C [28] 58.8% | viability, T/C [29] 52.4% | viability, T/C [30] 60.8%
> 1000 nM: IC50 (second compound 0.1 µM) | IC50 (second compound 0.316 µM) | IC50 (second compound 1 µM) | IC50 (second compound 3.16 µM) | IC50 (second compound 10 µM)

O=C(C=Cc1cccc(S(=O)(=O)Nc2ccccc2)c1)NO + NC1CCC(NC2CC2c2ccccc2)CC1
266 nM: IC50 (second compound 3.16 µM)
262 nM: IC50 (second compound 0.1 µM)
active: viability, T/C (second compound 0.1 µM, first compound 0.949 µM) 3.48% | viability, T/C (second compound 0.1 µM, first compound 3 µM) 0.14% | viability, T/C (second compound 0.316 µM, first compound 0.949 µM) 4.3% | viability, T/C (second compound 0.316 µM, first compound 3 µM) 0.15% | viability, T/C (second compound 1 µM, first compound 0.949 µM) 4.13% | viability, T/C (second compound 1 µM, first compound 3 µM) 0.15% | viability, T/C (second compound 3.16 µM, first compound 0.949 µM) 4.22% | viability, T/C (second compound 3.16 µM, first compound 3 µM) 0.16% | viability, T/C (second compound 10 µM, first compound 0.949 µM) 3.52% | viability, T/C (second compound 10 µM, first compound 3 µM) 0.24%
239 nM: IC50 (second compound 0.316 µM)
192 nM: IC50 (second compound 10 µM)
241 nM: IC50 (second compound 1 µM)
inactive: viability, T/C (second compound 0.1 µM, first compound 0.00949 µM) 109% | viability, T/C (second compound 0.1 µM, first compound 0.03 µM) 112% | viability, T/C (second compound 0.1 µM, first compound 0.0949 µM) 116% | viability, T/C (second compound 0.1 µM, first compound 0.3 µM) 41.7% | viability, T/C (second compound 0.316 µM, first compound 0.00949 µM) 131% | viability, T/C (second compound 0.316 µM, first compound 0.03 µM) 107% | viability, T/C (second compound 0.316 µM, first compound 0.0949 µM) 95.1% | viability, T/C (second compound 0.316 µM, first compound 0.3 µM) 39.4% | viability, T/C (second compound 1 µM, first compound 0.00949 µM) 90.3% | viability, T/C (second compound 1 µM, first compound 0.03 µM) 121% | viability, T/C (second compound 1 µM, first compound 0.0949 µM) 95.8% | viability, T/C (second compound 1 µM, first compound 0.3 µM) 39.1% | viability, T/C (second compound 3.16 µM, first compound 0.00949 µM) 109% | viability, T/C (second compound 3.16 µM, first compound 0.03 µM) 129% | viability, T/C (second compound 3.16 µM, first compound 0.0949 µM) 113% | viability, T/C (second compound 3.16 µM, first compound 0.3 µM) 42.5% | viability, T/C (second compound 10 µM, first compound 0.00949 µM) 107% | viability, T/C (second compound 10 µM, first compound 0.03 µM) 118% | viability, T/C (second compound 10 µM, first compound 0.0949 µM) 73% | viability, T/C (second compound 10 µM, first compound 0.3 µM) 35.7%

CC[C@@]1(O)C(=O)OCc2c1cc1n(c2=O)Cc2cc3c(CN(C)C)c(O)ccc3nc2-1 + NC1CC1c1ccc(-c2cccc(O)c2)cc1
10.4 nM: IC50 (second compound 0.1 µM)
9.47 nM: IC50 (second compound 1 µM)
8.68 nM: IC50 (second compound 3.16 µM)
inactive: viability, T/C (second compound 0.1 µM, first compound 0.000316 µM) 72.3% | viability, T/C (second compound 0.1 µM, first compound 0.001 µM) 81.5% | viability, T/C [1] 79.9% | viability, T/C [2] 50.3% | viability, T/C [3] 43.7% | viability, T/C [4] 33.2% | viability, T/C (second compound 0.316 µM, first compound 0.000316 µM) 76.1% | viability, T/C (second compound 0.316 µM, first compound 0.001 µM) 90.1% | viability, T/C [7] 62.9% | viability, T/C [8] 53.5% | viability, T/C [9] 43.7% | viability, T/C [10] 35.9% | viability, T/C (second compound 1 µM, first compound 0.000316 µM) 78.5% | viability, T/C (second compound 1 µM, first compound 0.001 µM) 89% | viability, T/C [13] 73.3% | viability, T/C [14] 49.8% | viability, T/C [15] 33.5% | viability, T/C [16] 35.3% | viability, T/C (second compound 3.16 µM, first compound 0.000316 µM) 75.8% | viability, T/C (second compound 3.16 µM, first compound 0.001 µM) 79.2% | viability, T/C [19] 77.6% | viability, T/C [20] 46.1% | viability, T/C [21] 42% | viability, T/C [22] 33.9% | viability, T/C (second compound 10 µM, first compound 0.000316 µM) 79% | viability, T/C (second compound 10 µM, first compound 0.001 µM) 81.7% | viability, T/C [25] 84.4% | viability, T/C [26] 51.1% | viability, T/C [27] 40.9% | viability, T/C [28] 41.1%
11.4 nM: IC50 (second compound 10 µM)
12.1 nM: IC50 (second compound 0.316 µM)

CC1COCCN1c1cc(C2(S(C)(=N)=O)CC2)nc(-c2ccnc3[nH]ccc23)n1 (stereo not given) + NC1CCC(NC2CC2c2ccccc2)CC1
1830 nM: IC50 (second compound 3.16 µM)
inactive: viability, T/C [3] 82.9% | viability, T/C [4] 79.5% | viability, T/C [5] 91.1% | viability, T/C [6] 71.5% | viability, T/C (second compound 0.1 µM, first compound 3.16 µM) 43.2% | viability, T/C (second compound 0.1 µM, first compound 10 µM) 44.5% | viability, T/C [9] 95.2% | viability, T/C [10] 90.1% | viability, T/C [11] 107% | viability, T/C [12] 57.5% | viability, T/C (second compound 0.316 µM, first compound 3.16 µM) 45.5% | viability, T/C (second compound 0.316 µM, first compound 10 µM) 34.3% | viability, T/C [15] 84.4% | viability, T/C [16] 88% | viability, T/C [17] 84.3% | viability, T/C [18] 67% | viability, T/C (second compound 1 µM, first compound 3.16 µM) 44% | viability, T/C (second compound 1 µM, first compound 10 µM) 38.9% | viability, T/C [21] 80.6% | viability, T/C [22] 97.6% | viability, T/C [23] 82.9% | viability, T/C [24] 60.4% | viability, T/C (second compound 3.16 µM, first compound 3.16 µM) 41.8% | viability, T/C (second compound 3.16 µM, first compound 10 µM) 34.4% | viability, T/C [27] 79.6% | viability, T/C [28] 74% | viability, T/C [29] 76.8% | viability, T/C [30] 60.4% | viability, T/C (second compound 10 µM, first compound 3.16 µM) 36.9% | viability, T/C (second compound 10 µM, first compound 10 µM) 39%
2450 nM: IC50 (second compound 0.1 µM)
2320 nM: IC50 (second compound 1 µM)
1710 nM: IC50 (second compound 10 µM)
1630 nM: IC50 (second compound 0.316 µM)

Reference: PubChem BioAssay AID1918949 (Molecular Pharmacology Branch, DTP, NCI, 2023)
